From patent US11572399B2, “Long-acting GIP peptide analogues” (University of Copenhagen, priority 2017, dated 2023) come the findings set out here.

Peptide text beside a SMILES is read from it. * marks the point of attachment. C16 diacid = O=C(O)CCCCCCCCCCCCCCC(=O)*; Palmitoyl = CCCCCCCCCCCCCCCC(=O)*

A word on the Emax: it is the greatest response seen or fitted, relative to the assay's reference. For orientation: Ki means the dissociation constant of the complex between target and ligand, obtained from inhibition or displacement. Broadly, the EC50 is the concentration that produces a half-maximal response.

Data set [1] concerns the target T1, human GIP receptor (Homo sapiens, UniProt P48546).
T1 construct: host or cells: COS-7, transient transfection (calcium phosphate), cDNA in pCMV-Script
T1 sequence (P48546 22-466): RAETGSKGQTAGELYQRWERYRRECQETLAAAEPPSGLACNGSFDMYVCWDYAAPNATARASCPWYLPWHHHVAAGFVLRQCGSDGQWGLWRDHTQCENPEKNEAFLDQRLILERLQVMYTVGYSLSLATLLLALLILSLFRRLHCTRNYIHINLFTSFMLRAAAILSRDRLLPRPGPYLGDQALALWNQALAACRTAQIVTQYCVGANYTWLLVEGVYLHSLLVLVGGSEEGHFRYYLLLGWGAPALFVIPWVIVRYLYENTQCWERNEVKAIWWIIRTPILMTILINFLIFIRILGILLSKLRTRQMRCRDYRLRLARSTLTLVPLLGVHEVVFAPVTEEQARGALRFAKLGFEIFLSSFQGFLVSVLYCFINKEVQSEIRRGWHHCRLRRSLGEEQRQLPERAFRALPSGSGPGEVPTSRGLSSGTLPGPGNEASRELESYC
Description: cAMP accumulation assay, agonism (ligand alone). As to conditions: Table 1; for Emax: COS-7, intrinsic cAMP activity, COS-7 cells; for EC50: given as log EC50 (negative sign), read-out: cAMP agonism EC50 (log) (converted). The data set is classed as cell-based.

For data set [2], the target named is T1, human GIP receptor. Description: 125I-human GIP competition binding assay, in the presence and absence of 2% HSA.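 On all read-outs here: nonspecific binding taken as radioligand bound to untransfected cells, IC50 obtained from nonlinear regression fits.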 Conditions: for Fold change HSA (2%)/Casein (0.1%): IC50 (plus HSA)/IC50 (minus HSA); for Binding (+/−HSA) Fold: fold change +HSA/−HSA; for Fold change in affinity, IC50 (plus HSA)/IC50 (minus HSA): presence vs absence of 2% HSA, proxy for albumin binding.

Data set [3] deals with T1, human GIP receptor. Description: cAMP accumulation assay, antagonism of a GIP-mediated cAMP response (50-80% of max). It is filed as cell-based. Conditions: for Fold change of IC50 versus GIP(5-30)NH2: fold change of IC50 from GIP(5-30)NH2. As for the experimental part: The day after, the cells were washed twice with Hepes buffered saline (HBS) buffer and incubated with HBS and 1 mM 3-isobutyl-1-methylxanthine (IBMX) for 30 min at 37° C. […] The HitHunter™ cAMP XS assay (DiscoveRx) was carried out according to the manufacturer's instructions.
On the technique in general: Cyclic AMP is a second messenger, typically raised through Gs and lowered through Gi signalling.

Where [4] appears, read: binding in 0.1% casein (absence of HSA), log value, read-out: logIC50 0.1% casein (converted).
Where [5] appears, read: heterologous competition binding, transiently transfected COS-7 cells expressing the human GIP receptor, read-out: Binding.
The mark [6] stands for this setting: transiently transfected COS-7 cells, Table 1 and text, read-out: cAMP antagonism nM (IC50, antagonistic potency).
[7] abbreviates: antagonism of GIP-mediated cAMP response, COS-7 cells, read-out: cAMP accumulation IC50.

With `CC[C@H](C)[C@H](NC(=O)[C@H](CO)NC(=O)[C@H](Cc1ccc(O)cc1)NC(=O)[C@H](CC(=O)O)NC(=O)[C@H](CO)NC(=O)[C@H](CCCCNC(=O)CCCCCCCCCCCCCCC(=O)O)NC(=O)[C@H](Cc1ccccc1)NC(=O)[C@@H](N)[C@@H](C)O)C(=O)N[C@@H](C)C(=O)N[C@@H](CCSC)C(=O)N[C@@H](CC(=O)O)C(=O)N[C@@H](CCCCN)C(=O)N[C@H](C(=O)N[C@@H](Cc1c[nH]cn1)C(=O)N[C@@H](CCC(N)=O)C(=O)N[C@@H](CCC(N)=O)C(=O)N[C@@H](CC(=O)O)C(=O)N[C@@H](Cc1ccccc1)C(=O)N[C@H](C(=O)N[C@@H](CC(N)=O)C(=O)N[C@@H](Cc1c[nH]c2ccccc12)C(=O)N[C@@H](CC(C)C)C(=O)N[C@@H](CC(C)C)C(=O)N[C@@H](C)C(=O)N[C@@H](CCC(N)=O)C(=O)N[C@@H](CCCCN)C(N)=O)C(C)C)[C@@H](C)CC` [AT169, [hGIP(5-30)NH2[I7K]-C16diacid/7]], the Emax in data set [1] amounted to 0%. The “Fold change HSA (2%)/Casein (0.1%)” value in data set [2] is 5.8. Also, the IC50 in data set [2] (setting [4]) is 31.6 nM; in data set [2] (binding in presence of 2% HSA, read-out: logIC50 2% HSA (converted)), 166 nM; in data set [2] (setting [5]), 28 nM; in data set [3] (setting [6]) it was 37 nM. The “Binding (+/−HSA) Fold” value in data set [2] stood at 4.8. Further, in data set [2] (presence of 2% HSA), the Ki came out at 126 nM. Moreover, in data set [2], the “Fold change in affinity, IC50 (plus HSA)/IC50 (minus HSA)” value worked out at 5.8 fold. For the same compound, the “Fold change of IC50 versus GIP(5-30)NH2” value in data set [3] is 3.0.

For the compound `CCCCCCCCCCCCCCCC(=O)N[C@H](C(=O)N[C@@H](Cc1ccccc1)C(=O)N[C@H](C(=O)N[C@@H](CO)C(=O)N[C@@H](CC(=O)O)C(=O)N[C@@H](Cc1ccc(O)cc1)C(=O)N[C@@H](CO)C(=O)N[C@H](C(=O)N[C@@H](C)C(=O)N[C@@H](CCSC)C(=O)N[C@@H](CC(=O)O)C(=O)N[C@@H](CCCNC(=N)N)C(=O)N[C@H](C(=O)N[C@@H](CCCCN)C(=O)N[C@@H](CCC(N)=O)C(=O)N[C@@H](CCC(N)=O)C(=O)N[C@@H](CC(=O)O)C(=O)N[C@@H](Cc1ccccc1)C(=O)N[C@H](C(=O)N[C@@H](CC(N)=O)C(=O)N[C@@H](Cc1c[nH]c2ccccc12)C(=O)N[C@@H](CC(C)C)C(=O)N[C@@H](CC(C)C)C(=O)N[C@@H](C)C(=O)N[C@@H](CCC(N)=O)C(=O)N[C@@H](CCCNC(=N)N)C(N)=O)C(C)C)[C@@H](C)CC)[C@@H](C)CC)[C@@H](C)CC)[C@@H](C)O` [AT133, [hGIP(5-30)NH2[K16R; H18K; K30R]-C16/5]] (Palmitoyl-TFISDYSIAMDRIKQQDFVNWLLAQR-NH2), the Emax in data set [1] came to 0%. The “Fold change HSA (2%)/Casein (0.1%)” value in data set [2] worked out at 1.3. For the same compound, the IC50 in data set [2] (setting [4]) was 1580 nM; in data set [2] (setting [5]) it was 1720 nM. Moreover, in data set [3], the “Ability to antagonize the GIP-mediated cAMP response (in words)” value is “failed to antagonize”.

Consider `CC[C@H](C)[C@H](NC(=O)[C@H](CO)NC(=O)[C@H](Cc1ccc(O)cc1)NC(=O)[C@H](CC(=O)O)NC(=O)[C@H](CO)NC(=O)[C@@H](NC(=O)[C@H](Cc1ccccc1)NC(=O)[C@@H](N)[C@@H](C)O)[C@@H](C)CC)C(=O)N[C@@H](C)C(=O)N[C@@H](CCSC)C(=O)N[C@@H](CC(=O)O)C(=O)N[C@@H](CCCCN)C(=O)N[C@H](C(=O)N[C@@H](Cc1c[nH]cn1)C(=O)N[C@@H](CCC(N)=O)C(=O)N[C@@H](CCC(N)=O)C(=O)N[C@@H](CC(=O)O)C(=O)N[C@@H](CCCCNC(=O)CCCCCCCCCCCCCCC(=O)O)C(=O)N[C@H](C(=O)N[C@@H](CC(N)=O)C(=O)N[C@@H](Cc1c[nH]c2ccccc12)C(=O)N[C@@H](CC(C)C)C(=O)N[C@@H](CC(C)C)C(=O)N[C@@H](C)C(=O)N[C@@H](CCC(N)=O)C(=O)N[C@@H](CCCCN)C(N)=O)C(C)C)[C@@H](C)CC` [AT182, [hGIP(5-30)NH2[F22K]-C16diacid/22]] (H-TFISDYSIAMDKIHQQDK(C16 diacid)VNWLLAQK-NH2; N-terminus assumed), for which, in data set [1], the Emax amounted to 13% and the EC50 is 1000 nM. Also, in data set [2], the “Fold change HSA (2%)/Casein (0.1%)” value came to 3.0 and the “Binding (+/−HSA) Fold” value is recorded as 1.4. The IC50 in data set [2] (setting [5]) is 962 nM. The IC50 in data set [3] (setting [7]) came out at 603 nM. For the same compound, the “Fold change of IC50 versus GIP(5-30)NH2” value in data set [3] stood at 21.9. For the same compound, the IC50 in data set [3] (setting [6]) amounted to 634 nM.

For the compound `CC[C@H](C)[C@H](NC(=O)[C@H](CO)NC(=O)[C@H](Cc1ccc(O)cc1)NC(=O)[C@H](CC(=O)O)NC(=O)[C@H](CO)NC(=O)[C@@H](NC(=O)[C@H](Cc1ccccc1)NC(=O)[C@@H](N)[C@@H](C)O)[C@@H](C)CC)C(=O)N[C@@H](C)C(=O)N[C@@H](CCSC)C(=O)N[C@@H](CCCCNC(=O)CCCCCCCCCCCCCCC(=O)O)C(=O)N[C@@H](CCCCN)C(=O)N[C@H](C(=O)N[C@@H](Cc1c[nH]cn1)C(=O)N[C@@H](CCC(N)=O)C(=O)N[C@@H](CCC(N)=O)C(=O)N[C@@H](CC(=O)O)C(=O)N[C@@H](Cc1ccccc1)C(=O)N[C@H](C(=O)N[C@@H](CC(N)=O)C(=O)N[C@@H](Cc1c[nH]c2ccccc12)C(=O)N[C@@H](CC(C)C)C(=O)N[C@@H](CC(C)C)C(=O)N[C@@H](C)C(=O)N[C@@H](CCC(N)=O)C(=O)N[C@@H](CCCCN)C(N)=O)C(C)C)[C@@H](C)CC` [AT177, [hGIP(5-30)NH2[D15K]-C16diacid/15]] (H-TFISDYSIAMK(C16 diacid)KIHQQDFVNWLLAQK-NH2; N-terminus assumed), in data set [1], the Emax was found to be 30% and the EC50 is 100 nM. Also, in data set [2], the “Fold change HSA (2%)/Casein (0.1%)” value worked out at 3.8 and the “Binding (+/−HSA) Fold” value is on record as 3.8. Also, the Ki in data set [2] (absence of HSA) turned out to be 117 nM. In data set [2] (setting [5]), the IC50 worked out at 134 nM. Also, the “Fold change of IC50 versus GIP(5-30)NH2” value in data set [3] is given as 1.3. For the same compound, in data set [3] (setting [6]), the IC50 amounted to 59 nM.

In the case of `CC[C@H](C)[C@H](NC(=O)[C@H](CO)NC(=O)[C@H](Cc1ccc(O)cc1)NC(=O)[C@H](CCCCNC(=O)CCCCCCCCCCCCCCC(=O)O)NC(=O)[C@H](CO)NC(=O)[C@@H](NC(=O)[C@H](Cc1ccccc1)NC(=O)[C@@H](N)[C@@H](C)O)[C@@H](C)CC)C(=O)N[C@@H](C)C(=O)N[C@@H](CCSC)C(=O)N[C@@H](CC(=O)O)C(=O)N[C@@H](CCCCN)C(=O)N[C@H](C(=O)N[C@@H](Cc1c[nH]cn1)C(=O)N[C@@H](CCC(N)=O)C(=O)N[C@@H](CCC(N)=O)C(=O)N[C@@H](CC(=O)O)C(=O)N[C@@H](Cc1ccccc1)C(=O)N[C@H](C(=O)N[C@@H](CC(N)=O)C(=O)N[C@@H](Cc1c[nH]c2ccccc12)C(=O)N[C@@H](CC(C)C)C(=O)N[C@@H](CC(C)C)C(=O)N[C@@H](C)C(=O)N[C@@H](CCC(N)=O)C(=O)N[C@@H](CCCCN)C(N)=O)C(C)C)[C@@H](C)CC` [AT171, [hGIP(5-30)NH2[D9K]-C16diacid/9]] (H-TFISK(C16 diacid)YSIAMDKIHQQDFVNWLLAQK-NH2; N-terminus assumed), the Emax in data set [1] amounted to 0%. In addition, in data set [2], the “Fold change HSA (2%)/Casein (0.1%)” value came to 8.3; the “Binding (+/−HSA) Fold” value was found to be 6.3; the “Fold change in affinity, IC50 (plus HSA)/IC50 (minus HSA)” value came out at 8.3 fold. Also, the IC50 in data set [2] (setting [4]) is 79.4 nM. Further, the IC50 in data set [3] (setting [7]) worked out at 31.6 nM. Also, in data set [3], the “Fold change of IC50 versus GIP(5-30)NH2” value turned out to be 1.1. In data set [3] (setting [6]), the IC50 worked out at 35 nM.

Turning to `CCCCCCCCCCCCCC(=O)N[C@H](C(=O)N[C@@H](Cc1ccccc1)C(=O)N[C@H](C(=O)N[C@@H](CO)C(=O)N[C@@H](CC(=O)O)C(=O)N[C@@H](Cc1ccc(O)cc1)C(=O)N[C@@H](CO)C(=O)N[C@H](C(=O)N[C@@H](C)C(=O)N[C@@H](CCSC)C(=O)N[C@@H](CC(=O)O)C(=O)N[C@@H](CCCCN)C(=O)N[C@H](C(=O)N[C@@H](Cc1c[nH]cn1)C(=O)N[C@@H](CCC(N)=O)C(=O)N[C@@H](CCC(N)=O)C(=O)N[C@@H](CC(=O)O)C(=O)N[C@@H](Cc1ccccc1)C(=O)N[C@H](C(=O)N[C@@H](CC(N)=O)C(=O)N[C@@H](Cc1c[nH]c2ccccc12)C(=O)N[C@@H](CC(C)C)C(=O)N[C@@H](CC(C)C)C(=O)N[C@@H](C)C(=O)N[C@@H](CCC(N)=O)C(=O)N[C@@H](CCCCN)C(N)=O)C(C)C)[C@@H](C)CC)[C@@H](C)CC)[C@@H](C)CC)[C@@H](C)O` [AT121, [hGIP(5-30)NH2—C14/5]], the Emax in data set [1] came out at 0%. Further, in data set [2], the “Affinity compared to GIP(3-30)NH2 (in words)” value is “affinities in the same range as GIP(3-30)NH2” and the “Fold change HSA (2%)/Casein (0.1%)” value is 5.7. For the same compound, the IC50 in data set [2] (setting [4]) was 158 nM. Besides, in data set [3], the “Ability to antagonize the GIP-mediated cAMP response (in words)” value was “high potent antagonists”. Further, the IC50 in data set [3] (setting [6]) was 54 nM.
